{
  "source": "patent US12258329B2",
  "about": "(Merck Sharp & Dohme LLC, priority 2018, dated 2025)",
  "data": [
    {"tested_on": "infected PBMCs (VSV-G pseudotyped HIV virus VSV-G/pNLG1-P2A-ΔEnv)", "test": "cells", "format": "cell-based, human", "conditions": "Homo sapiens, PBMC, read-out: TACK EC50", "units": {"EC50": "nM"}, "values": [
      {"molecule": "Cc1nc(N)c(Cn2cnc(C(F)(F)F)c(Oc3cc(C(F)F)cc(C#N)c3C)c2=O)c(=O)[nH]1", "note": "[Example 60, 3-((1-((4-amino-2-methyl-6-oxo-1,6-dihydropyrimidin-5-yl)methyl)-6-oxo-4-(trifluoromethyl)-1,6-dihydropyrimidin-5-yl)oxy)-5-(difluoromethyl)-2-methylbenzonitrile]", "EC50": 228},
      {"molecule": "COCCCc1nc(C)c(Cn2cnc(C(F)(F)C(F)(F)F)c(Oc3cc(Cl)cc(C#N)c3F)c2=O)c(=O)[nH]1", "note": "[Example 55, 5-chloro-2-fluoro-3-((1-((2-(3-methoxypropyl)-4-methyl-6-oxo-1,6-dihydropyrimidin-5-yl)methyl)-6-oxo-4-(perfluoroethyl)-1,6-dihydropyrimidin-5-yl)oxy)benzonitrile]", "EC50": 276},
      {"molecule": "Cc1nc(C)c(Cn2cnc(C(C)(F)F)c(Oc3c(Cl)cc(C#N)cc3Cl)c2=O)c(=O)[nH]1", "note": "[Example 13, 3,5-dichloro-4-((4-(1,1-difluoroethyl)-1-((2,4-dimethyl-6-oxo-1,6-dihydropyrimidin-5-yl)methyl)-6-oxo-1,6-dihydropyrimidin-5-yl)oxy) benzonitrile]", "EC50": 395},
      {"molecule": "Cc1nc(C)c(Cn2cnc(C(F)(F)C(F)(F)F)c(Oc3c(C)cc(C#N)cc3C)c2=O)c(=O)[nH]1", "note": "[Example 78, 4-((1-((2,4-dimethyl-6-oxo-1,6-dihydropyrimidin-5-yl)methyl)-6-oxo-4-(perfluoroethyl)-1,6-dihydropyrimidin-5-yl)oxy)-3,5-dimethylbenzonitrile]", "EC50": 156},
      {"molecule": "COc1c(C#N)cc(C(F)F)cc1Oc1c(C(F)(F)C(F)F)ncn(Cc2c(C)nc(C)[nH]c2=O)c1=O", "note": "[Example 10, 5-(difluoromethyl)-3-((1-((2,4-dimethyl-6-oxo-1,6-dihydropyrimidin-5-y1)methyl)-6-oxo-4-(1,1,2,2-tetrafluoroethyl)-1,6-dihydropyrimidin-5-y1)oxy)-2-methoxybenzonitrile]", "EC50": 146},
      {"molecule": "Cc1nc(C)c(Cn2cnc(C(F)(F)C(F)(F)F)c(Oc3c(F)ccc(C#N)c3F)c2=O)c(=O)[nH]1", "note": "[Example 71, 3-((1-((2,4-dimethyl-6-oxo-1,6-dihydropyrimidin-5-yl)methyl)-6-oxo-4-(perfluoroethyl)-1,6-dihydropyrimidin-5-yl)oxy)-2,4-difluorobenzonitrile]", "EC50": 149},
      {"molecule": "Cc1nc(C)c(Cn2cnc(C(F)(F)C(F)F)c(Oc3c(C)cc(C#N)cc3C3CC3)c2=O)c(=O)[nH]1", "note": "[Example 19, 3-cyclopropyl-4-((1-((2,4-dimethyl-6-oxo-1,6-dihydropyrimidin-5-yl)methyl)-6-oxo-4-(1,1,2,2-tetrafluoroethyl)-1,6-dihydropyrimidin-5-yl)oxy)-5-methylbenzonitrile]", "EC50": 315},
      {"molecule": "Cc1nc(C)c(Cn2cnc(C(F)(F)C(F)F)c(Oc3c(Cl)cc(C#N)cc3Cl)c2=O)c(=O)[nH]1", "note": "[Example 97, 3,5-dichloro-4-((1-((2,4-dimethyl-6-oxo-1,6-dihydropyrimidin-5-yl)methyl)-6-oxo-4-(1,1,2,2-tetrafluoroethyl)-1,6-dihydropyrimidin-5-yl)oxy)benzonitrile]", "EC50": 182},
      {"molecule": "COCc1nc(C)c(Cn2cnc(C(F)(F)C(F)F)c(Oc3cc(C(F)F)cc(C#N)c3C)c2=O)c(=O)[nH]1", "note": "[Example 51, 5-(difluoromethyl)-3-((1-((2-(methoxymethyl)-4-methyl-6-oxo-1,6-dihydropyrimidin-5-yl)methyl)-6-oxo-4-(1,1,2,2-tetrafluoroethyl)-1,6-dihydropyrimidin-5-yl)oxy)-2-methylbenzonitrile]", "EC50": 395}
    ]},
    {"tested_on": "infected PBMCs (VSV-G pseudotyped HIV virus VSV-G/pNLG1-P2A-ΔEnv)", "test": "cells", "format": "cell-based, human", "conditions": "read-out: TACK EC50", "units": {"EC50": "nM"}, "values": [
      {"molecule": "(S) or (R)-3,5-dichloro-4-((1-((2,4- dimethyl-6-oxo-1,6-dihydropyrimidin- 5-y1)methyl)-4-(1-fluoroethyl)-6-oxo- 1,6-dihydropyrimidin-5-yl)oxy) benzonitrile [Example 17]", "EC50": 282}
    ]}
  ]
}
